Source: EP0448765A1, “Use of guanidine derivatives for the manufacture of a medicament with NPY-antagonistic activity” (HEUMANN PHARMA GMBH & CO, priority 1990, dated 1991)

Target: T1, spezifischen NPY-Rezeptors (Homo sapiens, UniProt P25929)
T1 construct: intrazellulären Ca⁺⁺-Konzentration in HEL-Zellen (Human Erythroleukemia-Zellen) fluorimetrisch mit Fura-2 als Indikator gemessen; endogenous in cells; host or cells: HEL (human erythroleukemia) cells
T1 sequence (P25929 1-384): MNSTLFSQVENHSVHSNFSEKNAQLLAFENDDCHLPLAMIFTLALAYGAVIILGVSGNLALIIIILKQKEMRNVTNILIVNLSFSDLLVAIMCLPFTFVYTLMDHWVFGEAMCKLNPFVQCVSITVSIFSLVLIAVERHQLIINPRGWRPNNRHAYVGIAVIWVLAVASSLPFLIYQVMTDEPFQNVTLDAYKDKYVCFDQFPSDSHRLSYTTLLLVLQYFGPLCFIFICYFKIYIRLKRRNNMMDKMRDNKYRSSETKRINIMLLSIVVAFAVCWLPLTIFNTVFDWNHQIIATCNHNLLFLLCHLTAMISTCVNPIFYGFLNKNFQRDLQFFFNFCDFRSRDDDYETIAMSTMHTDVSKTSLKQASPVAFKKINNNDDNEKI
Assay: Inhibition of the NPY-induced rise of intracellular Ca++ in HEL cells (fluorimetric, Fura-2; method of Motulsky and Michel)
Format: cell-based
Settings: HEL-Zellen, antagonists added at 10⁻⁴ bis 10⁻⁶ (unit inferred), Schild-Plot-Analyse, read-out: pA2 Hemmung des Ca^++-Anstieges (converted)
Excerpt: Die Neuropeptid-Y-antagonistische Wirkung der erfindungsgemäß verwendeten Verbindungen wurde anhand der Methode von Motulsky und Michel (Motulsky, H.J., Michel, M.C., Am. J. Physiol. 255, 880 (1988)) nachgewiesen.
Bei dieser Methode wird der durch NPY induzierte Anstieg der intrazellulären Ca⁺⁺-Konzentration in HEL-Zellen (Human Erythroleukemia-Zellen) fluorimetrisch mit Fura-2 als Indikator gemessen. Unter den gegebenen Bedingungen bewirkt NPY einen konzentrationsabhängigen Anstieg der intrazellulären Ca⁺⁺-Konzentration über die Stimulation des spezifischen NPY-Rezeptors.
Zur Messung der Hemmwirkung der zu testenden Antagonisten werden diese in Konzentrationen von 10⁻⁴ bis 10⁻⁶ dem Inkubationsmedium zugesetzt. Dann wird erneut eine NPY-Wirkungskurve bestimmt.
Die erfindungsgemäß verwendeten Guanidinverbindungen verschieben die NPY-Konzentrationswirkungskurve nach rechts. Die Rechtsverschiebung ist nach Schild-Plot-Analyse kompetitiv. Die Substanzen antagonisieren demnach die NPY-Wirkung durch Konkurrenz am spezifischen NPY-Rezeptor.

Kb | Structure (SMILES)
100 µM | N=C(NCCCc1c[nH]cn1)NCCOC(c1ccccc1)c1ccccc1 [Verbindung A, N¹-[3-(1H-Imidazol-4-yl)propyl]-N²-[2-(diphenylmethoxy)ethyl]-guanidin]
19.1 µM | N=C(NCCCc1c[nH]cn1)NCCC(c1cc(F)cc(F)c1)c1ccccn1 (stereo not shown) [Verbindung B, N¹-[3-(3,5-Difluorphenyl)-3-(pyridin-2-yl)propyl]-N²-[3-(1H-imidazol-4-yl)propyl]-guanidin]
1.32 µM | Cc1cc(Br)cnc1N(CCNC(=N)NCCCc1c[nH]cn1)Cc1ccccc1 [Verbindung C, N¹-[2-[N-(5-Brom-3-methyl-pyridin-2-yl)benzylamino]-ethyl]-N²-[3-(1H-imidazol-4-yl)propyl]-guanidin]
9.12 µM | Cc1cc(Br)cnc1CCCCNC(=N)NCCCc1c[nH]cn1 [Verbindung D, N¹-[4-(5-Brom-3-methyl-pyridin-2-yl)butyl]-N²-[3-(1H-imidazol-4-yl)propyl]-guanidin]
